PubChem BioAssay AID248 (DTP/NCI, 2004)
Inconclusive results and toxic doses are left out.

Test system: L1210 leukemia ip in BDF1 mice, survival T/C
Experiment: NCI In Vivo Anticancer Drug Screen. Data for tumor model L1210 Leukemia (intraperitoneal) in B6D2F1 (BDF1) mice
Details: endpoint: mean survival time, higher = longer survival
How it was run: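 In this screen, tumor-bearing mice given compound are compared to those given vehicle, and their survival values are reported as a treated-to-control quotient.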

[1] = dose: 100.0 mg/kg/injection, schedule: Q01DX009 (ip), vehicle: Klucel (hydroxypropylcellulose) (HPC)
[2] = dose: 100.0 mg/kg/injection, schedule: Q04DX003 (ip), vehicle: Klucel (hydroxypropylcellulose) (HPC)
[3] = dose: 200.0 mg/kg/injection, schedule: Q01DX009 (ip), vehicle: Klucel (hydroxypropylcellulose) (HPC)
[4] = dose: 400.0 mg/kg/injection, schedule: Q04DX003 (ip), vehicle: Klucel (hydroxypropylcellulose) (HPC)
[5] = dose: 100.0 mg/kg/injection, schedule: Q01DX001 (ip), vehicle: saline
[6] = dose: 100.0 mg/kg/injection, schedule: Q01DX009 (ip), vehicle: saline
[7] = dose: 200.0 mg/kg/injection, schedule: Q01DX001 (ip), vehicle: saline
[8] = dose: 200.0 mg/kg/injection, schedule: Q01DX009 (ip), vehicle: saline
[9] = dose: 400.0 mg/kg/injection, schedule: Q01DX001 (ip), vehicle: saline
[10] = dose: 400.0 mg/kg/injection, schedule: Q01DX009 (ip), vehicle: saline
[11] = dose: 50.0 mg/kg/injection, schedule: Q01DX001 (ip), vehicle: saline
[12] = dose: 100.0 mg/kg/injection, schedule: Q04DX003 (ip), vehicle: saline
[13] = dose: 200.0 mg/kg/injection, schedule: Q04DX003 (ip), vehicle: saline
[14] = dose: 400.0 mg/kg/injection, schedule: Q04DX003 (ip), vehicle: saline
[15] = dose: 200.0 mg/kg/injection, schedule: Q04DX003 (ip), vehicle: Klucel (hydroxypropylcellulose) (HPC)
[16] = dose: 400.0 mg/kg/injection, schedule: Q01DX009 (ip), vehicle: Klucel (hydroxypropylcellulose) (HPC)
[17] = dose: 400.0 mg/kg/injection, schedule: Q04DX002 (ip), vehicle: saline with Tween-80
[18] = dose: 75.0 mg/kg/injection, schedule: Q01DX001 (ip), vehicle: saline
[19] = dose: 100.0 mg/kg/injection, schedule: Q04DX002 (ip), vehicle: Klucel (hydroxypropylcellulose) (HPC)
[20] = dose: 200.0 mg/kg/injection, schedule: Q04DX002 (ip), vehicle: Klucel (hydroxypropylcellulose) (HPC)
[21] = dose: 400.0 mg/kg/injection, schedule: Q04DX002 (ip), vehicle: Klucel (hydroxypropylcellulose) (HPC)

O=C(COc1ccc(Cl)cc1)Nc1ccc(F)cc1
T/C [1]: 98 % of control | T/C [2]: 95 % of control | T/C [3]: 90 % of control | T/C [4]: 95 % of control

NNC(=O)Nc1cccnc1
T/C (dose: 75.0 mg/kg/injection, schedule: Q01DX009 (ip), vehicle: saline): 106 % of control

CCOC(=O)COc1ccc(N2C(N)=NC(N)=NC2(C)C)cc1
T/C [5]: 107 % of control | T/C [6]: 117 % of control | T/C [7]: 102 % of control | T/C [8]: 98 % of control | T/C [9]: 97 % of control | T/C [10]: 104 % of control

CCCCCCCCCCSc1ncnc2c1ncn2CO
T/C [11]: 91 % of control | T/C [5]: 101 % of control | T/C [7]: 117 % of control | T/C [9]: 120 % of control

Cc1nc(N)[nH]c(=O)c1CCCOc1ccc([N+](=O)[O-])cc1
T/C (dose: 12.5 mg/kg/injection, schedule: Q04DX002 (ip), vehicle: saline): 106 % of control | T/C (dose: 25.0 mg/kg/injection, schedule: Q04DX002 (ip), vehicle: saline): 102 % of control | T/C (dose: 50.0 mg/kg/injection, schedule: Q04DX002 (ip), vehicle: saline): 95 % of control

O=[N+]([O-])c1cccc(-c2nn[nH]n2)c1
T/C [12]: 94 % of control | T/C [13]: 94 % of control | T/C [14]: 96 % of control

CCOC(=O)NCC[N+](C)(C)C
T/C (dose: 6.25 mg/kg/injection, schedule: Q01DX009 (ip), vehicle: saline): 94 % of control | T/C (dose: 12.5 mg/kg/injection, schedule: Q01DX009 (ip), vehicle: saline): 100 % of control | T/C (dose: 25.0 mg/kg/injection, schedule: Q01DX009 (ip), vehicle: saline): 102 % of control

NC(=O)N1C(=O)C2C3C=CC(O3)C2C1=O (stereo not given)
T/C [6]: 96 % of control | T/C [12]: 98 % of control | T/C [8]: 95 % of control | T/C [13]: 101 % of control | T/C [14]: 101 % of control

N#CCc1[nH]nc(N)c1C#N
T/C [1]: 95 % of control | T/C [2]: 89 % of control | T/C [3]: 102 % of control | T/C [15]: 93 % of control | T/C [16]: 96 % of control | T/C [4]: 91 % of control

c1ccc(N(c2ccccc2)C(c2ccccc2)(c2ccccc2)c2ccccc2)cc1
T/C (dose: 25.6 mg/kg/injection, schedule: Q04DX002 (ip), vehicle: saline with Tween-80): 93 % of control | T/C (dose: 64.0 mg/kg/injection, schedule: Q04DX002 (ip), vehicle: saline with Tween-80): 104 % of control | T/C (dose: 100.0 mg/kg/injection, schedule: Q04DX003 (ip), vehicle: saline with Tween-80): 89 % of control | T/C (dose: 160.0 mg/kg/injection, schedule: Q04DX002 (ip), vehicle: saline with Tween-80): 95 % of control | T/C (dose: 200.0 mg/kg/injection, schedule: Q04DX003 (ip), vehicle: saline with Tween-80): 92 % of control | T/C [17]: 95 % of control | T/C (dose: 400.0 mg/kg/injection, schedule: Q04DX003 (ip), vehicle: saline with Tween-80): 685 % of control

CCN(CC)CCNc1cccc2sc3ccccc3c(=O)c12
T/C (dose: 50.0 mg/kg/injection, schedule: Q01DX009 (ip), vehicle: Klucel (hydroxypropylcellulose) (HPC)): 92 % of control | T/C [1]: 94 % of control | T/C [3]: 94 % of control | T/C [16]: 100 % of control

N=c1ccn(CC(O)COc2ccccc2)cc1 (stereo not given)
T/C [5]: 102 % of control

NCC(=O)Oc1c(Cl)c(Cl)c(Cl)c(Cl)c1Cl
T/C [18]: 104 % of control

Cc1cc([N+](=O)[O-])ccc1NC(=O)OCc1ccccc1
T/C [19]: 99 % of control | T/C [20]: 101 % of control | T/C [21]: 89 % of control

CN(C)P1(=O)NCCCO1 (stereo not given)
T/C [5]: 100 % of control | T/C [7]: 110 % of control | T/C [9]: 109 % of control

Cc1c(/C=C/[N+](=O)[O-])cc(C)c2c3c(oc12)CCCC3
T/C [11]: 98 % of control | T/C [5]: 93 % of control | T/C [7]: 102 % of control

CCOc1cccc2c(=O)c(C(=O)O)cn(CC)c12
T/C [19]: 93 % of control | T/C [20]: 107 % of control | T/C [21]: 104 % of control

COc1ccc([N+](=O)[O-])cc1C(=O)O
T/C [18]: 104 % of control | T/C (dose: 75.0 mg/kg/injection, schedule: Q04DX003 (ip), vehicle: acetone): 100 % of control | T/C (dose: 150.0 mg/kg/injection, schedule: Q01DX001 (ip), vehicle: saline): 95 % of control | T/C (dose: 150.0 mg/kg/injection, schedule: Q04DX003 (ip), vehicle: acetone): 89 % of control | T/C (dose: 300.0 mg/kg/injection, schedule: Q01DX001 (ip), vehicle: saline): 104 % of control | T/C (dose: 300.0 mg/kg/injection, schedule: Q04DX003 (ip), vehicle: acetone): 93 % of control

O=C(OCC(COC(=O)c1ccccc1)(COC(=O)c1ccccc1)[N+](=O)[O-])c1ccccc1
T/C [2]: 92 % of control | T/C [15]: 92 % of control | T/C [4]: 94 % of control

O=C(CCl)N1CCC(C(O)c2cc3ccccc3n2S(=O)(=O)c2ccccc2)CC1 (stereo not given)
T/C (dose: 100.0 mg/kg/injection, schedule: Q04DX002 (ip), vehicle: saline with Tween-80): 94 % of control | T/C (dose: 200.0 mg/kg/injection, schedule: Q04DX002 (ip), vehicle: saline with Tween-80): 94 % of control | T/C [17]: 97 % of control

CN(C)NC(=O)CC(N)C(=O)O (stereo not given)
T/C [6]: 97 % of control | T/C [8]: 114 % of control | T/C [10]: 100 % of control
